Laboratory results from PMC6934184, “Selective DNA-PKcs inhibition extends the therapeutic index of localized radiotherapy and chemotherapy” (The Journal of Clinical Investigation, 2019).

Molecular target: T1, CDK14 (PFTK1)/cyclin Y (Homo sapiens, UniProt O94921)
T1 construct: purchased Thermo Fisher Scientific (Life Technologies) SelectScreen
Assay: SelectScreen LanthaScreen
Type: binding
Conditions: 1 µM
Method in brief: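 Percent values come from Thermo SelectScreen profiling of NU5455, combining activity and binding assays. CSF1R was run in Z'LYTE format at Km app ATP, and CAMK1 in Adapta format with ATP listed at 10.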

T1 sequence (O94921 whole entry): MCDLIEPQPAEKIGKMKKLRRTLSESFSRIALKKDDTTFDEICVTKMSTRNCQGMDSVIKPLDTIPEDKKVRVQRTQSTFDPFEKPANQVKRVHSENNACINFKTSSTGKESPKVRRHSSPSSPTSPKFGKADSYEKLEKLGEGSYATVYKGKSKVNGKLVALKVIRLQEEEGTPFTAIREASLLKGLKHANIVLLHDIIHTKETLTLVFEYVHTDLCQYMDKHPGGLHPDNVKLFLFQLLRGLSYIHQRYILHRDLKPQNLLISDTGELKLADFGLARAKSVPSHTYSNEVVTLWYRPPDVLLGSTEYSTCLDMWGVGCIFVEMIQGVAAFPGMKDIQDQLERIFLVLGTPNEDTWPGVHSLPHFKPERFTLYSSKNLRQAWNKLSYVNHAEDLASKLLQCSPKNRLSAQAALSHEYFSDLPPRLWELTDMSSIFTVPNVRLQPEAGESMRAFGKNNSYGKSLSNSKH
T1 sequence (Q8ND76 whole entry partner): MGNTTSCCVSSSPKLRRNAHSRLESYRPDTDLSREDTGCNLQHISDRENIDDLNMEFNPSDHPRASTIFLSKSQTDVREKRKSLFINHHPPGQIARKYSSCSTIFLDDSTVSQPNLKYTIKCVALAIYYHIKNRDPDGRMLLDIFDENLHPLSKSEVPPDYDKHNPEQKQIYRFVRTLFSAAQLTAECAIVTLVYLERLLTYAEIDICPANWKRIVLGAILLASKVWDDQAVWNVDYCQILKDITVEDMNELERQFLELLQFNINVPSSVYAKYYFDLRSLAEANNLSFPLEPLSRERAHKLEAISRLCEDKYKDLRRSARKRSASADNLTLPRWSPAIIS

## CN(C(=O)CN1CCOCC1)c1ccc2sc3c(-c4cccc5c(=O)cc(N6CC7CCC(C6)O7)oc45)cccc3c2c1 [NU5455]
  % displacement: 5.1%
